Here are results for one compound from publication PMC3100853 (2010).

As usually defined, the KD is a measure of binding affinity in units of concentration. Higher therefore signals a looser complex.

For experiment [1], the system named is FB1 32 (DNA, aptamer) ATACCAGCTTATTCAATTAATGTACGATGTGTGGGCAACATGAGTATGTCGTGTGATATCTAGATGAGGTAGCGGTGGAGATAGTAAGTGCAATCT
The experiment can be described thus: magnetic bead binding, percent DNA eluted (fluorescence). As to conditions: 100 mM NaCl, 5 mM KCl, 2 mM MgCl2, 1 mM CaCl2; 20 mM Tris pH 7.6, room temperature; immobilised compound; 9-15 pmol DNA, 2 × 10^8 beads.

For experiment [2], the system named is FB1 39 (DNA, aptamer) ATACCAGCTTATTCAATTAATCGCATTACCTTATACCAGCTTATTCAATTACGTCTGCACATACCAGCTTATTCAATTAGATAGTAAGTGCAATCT
The experiment can be described thus: magnetic bead binding, fluorescence of eluted DNA. The settings on record: 100 mM NaCl, 5 mM KCl, 2 mM MgCl2, 1 mM CaCl2; 20 mM Tris pH 7.6, room temperature; immobilised compound; aptamer 1 nM to 1 μM.

For experiment [3], the system named is FB1 16 (DNA, aptamer) ATACCAGCTTATTCAATTCATCCAGTAACAAACACATAAGTAACGGCGATATGTCAAAGCGGTATCGGCTACAGATGAGATAGTAAGTGCAATCT
The experiment can be described thus: magnetic bead binding, percent DNA eluted (fluorescence). As to conditions: 100 mM NaCl, 5 mM KCl, 2 mM MgCl2, 1 mM CaCl2; 20 mM Tris pH 7.6, room temperature; immobilised compound; 9-15 pmol DNA, 2 × 10^8 beads.

For experiment [4], the system named is FB1 31 (DNA, aptamer) ATACCAGCTTATTCAATTCGGGGACGTGTATACCAGCTTATTCAATTCACAGTTATGTCCTATACCAGCTTATTCAATTAGATAGTAAGTGCAATCT
Described as above. The settings on record: 100 mM NaCl, 5 mM KCl, 2 mM MgCl2, 1 mM CaCl2; 20 mM Tris pH 7.6, room temperature; immobilised compound; 9-15 pmol DNA, 2 × 10^8 beads.

Experiment [5] has as its system FB1 23 (DNA, aptamer) ATACCAGCTTATTCAATTGCGGATGCGTAAATGACGATAAACATAGATGGGGTATATCGCGATGCGACAGGGTGTAGATAGTAAGTGCAATCT
Described as above. As to conditions: 100 mM NaCl, 5 mM KCl, 2 mM MgCl2, 1 mM CaCl2; 20 mM Tris pH 7.6, room temperature; immobilised compound; 9-15 pmol DNA, 2 × 10^8 beads.

Experiment [6] has as its system FB1 14 (DNA, aptamer) ATACCAGCTTATTCAATTCTATACGGAGTGGATATCGATCTGTAACGTGAGTGAGATAATGTGATGCATAGTCGTGGAGATAGTAAGTGCAATCT
The description is as above. The settings on record: 100 mM NaCl, 5 mM KCl, 2 mM MgCl2, 1 mM CaCl2; 20 mM Tris pH 7.6, room temperature; immobilised compound; 9-15 pmol DNA, 2 × 10^8 beads.

`CCCC[C@@H](C)[C@@H](OC(=O)C[C@@H](CC(=O)O)C(=O)O)[C@H](C[C@@H](C)C[C@H](O)CCCC[C@@H](O)C[C@H](O)[C@H](C)N)OC(=O)C[C@@H](CC(=O)O)C(=O)O`: the binding result in experiment [1], in experiment [3], in experiment [4], in experiment [5] and in experiment [6] was “yes” each time. Besides, in experiment [2], the KD is 100 ± 30 nM.
